The results in this text go back to US20110104186A1, “Small molecule immunopotentiators and assays for their detection” (priority 2004, published 2011).

Some results are limits rather than exact numbers.

In the experiment the test system is TNF-α production. Kind of experiment: In vitro inhibition of TNF-α production by 1H-imidazoquinolines. The class given is cell-based.
Compound `CCOc1ccccc1C(=O)N1CCN(c2cccc(Cl)c2)CC1` [Example 14, 1-(3-chlorophenyl)-4-{[2-(ethyloxy)phenyl]carbonyl}-piperazine] registered an IC50 of 1.38 µM. In other words, the single-digit micromolar range.
The result for “1-[(3-fluorophenyl)carbonyl]-4-{[4-(trifluoromethyl)phenyl] methyl}piperazine [Example 12]” reads 3.66 µM; that for “1-[2-(methyloxy)phenyl]-4-{[3,4,5-tris(methyloxy)phenyl]carbonyl} piperazine [Example 16]”, 8.02 µM.
The result for “3-({4-[(2E)-3-phenylprop-2-enyl]piperazin-1-yl}carbonyl)-7-oxabicyclo[2.2.1]heptane-2-carboxylic acid [Example 15]” reads 3.68 µM.
Next, `COc1cccc(C(=O)N2CCc3cc(OC)c(OC)cc3C2C)c1` (stereo not drawn) [Example 22]: more than 10 µM; “3-pentyl-7-[(4-phenylpiperazin-1-yl)carbonyl]-2-thioxo-2,3-dihydroquinazolin-4(1H)-one [Example 18]”: more than 10 µM; `CNC(=O)c1cc(Oc2ccc3[nH]c(Nc4ccccc4C(C)C)nc3c2)ccn1` [Example 2, N-methyl-4-[(2-{[2-(1-methylethyl)phenyl]amino}-1H-benzimidazol-5-yl)oxy]pyridine-2-carboxamide]: 4.81 µM.
As to “3-[(4-pyridin-2-ylpiperazin-1-yl)carbonyl]-7-oxabicyclo[2.2.1]heptane-2-carboxylic acid [Example 17]”, the IC50 was found to be 2.67 µM.
“4-({2-[(4-chlorophenyl)amino]-1-methyl-1H-benzimidazol-5-yl}oxy)-N-1,3-thiazol-2-ylpyridine-2-carboxamide [Example 9]”: half-maximal inhibition (IC50) was put at 0.205 µM.

The IC50 is the midpoint of a concentration-inhibition curve.
